The values below come from article PMC8287724, “Reducing Auditory Nerve Excitability by Acute Antagonism of Ca^2+-Permeable AMPA Receptors” (Frontiers in Synaptic Neuroscience, 2021).

Several values for one entry are separate records, joined by “and”; a condition that tells them apart may be missing. Equal values may be shown once. Read-outs that look alike come from different tables or passages of the source. Some results are limits rather than exact numbers.

This data set in a line: Drug levels in blood, perilymph and CSF after IP injection (LC/MS). Type of data set: in vivo, guinea pig. The settings on record: for half-life / Kp: NIH-strain, pigmented, guinea pig; for half-life: blood, in vivo, IP injection: IEM-1460 13.5 mg/kg, IEM-1925 8 mg/kg, estimated from PK data, read-out: elimination half-life in blood; for Kp: ip. As to the method:
After at least 30 min of baseline data, 1 mL of Lactated Ringer's was injected into the peritoneal space of the guinea pig as a vehicle control. Then, 13.5 mg/kg IEM-1460 or 8 mg/kg IEM-1925 in Lactated Ringer's was injected into the peritoneal space of the guinea pig. The entire experiment took ~3 h to complete: 1 h for anesthetic induction and surgery, 30 min for sound calibration and CAP threshold measurements, and 2 h for drug delivery, DPOAE and CAP measurements. After collection of perilymph and CSF, the animal was euthanized via saturated KCl delivered directly into the jugular vein.
General surgical scissors were used to clip the toenail at a 45° angle to collect blood with a premarked glass capillary tube during the baseline period and after drug injection. The exact volume was determined by measurement of the fluid meniscus in a calibrated capillary tube. […] Complete details used to perform apical fluid sampling are presented elsewhere and are only briefly provided here (Mynatt et al., [2006]). Similar to the apical cochlear fenestration used to deliver drugs (described above), the mucosa on the cochlea was cleared from two apical turns using a small cotton swab, and the bone at the apex was allowed to dry. A droplet of thin cyanoacrylate adhesive was applied and cup formed over the apex with silicone adhesive. A small perforation (50–100 μm diameter) was then made in the bone over scala vestibuli at the apex using a 30° pick. Upon perforation, fluid immediately started emerging, driven by intralabyrinthine pressure from CSF, and formed a bead within the hydrophobic silicone cup. A calibrated 5 μL capillary micropipette (VWR #5342-706, S. Plainfield, NJ) was held by hand in contact with the fluid at the apex, so that fluid was drawn into the capillary in ~30 s. The exact volume was determined by measurement of the fluid meniscus. Perilymph from the opposite ear was sampled prior to euthanizing the animal, then ~2 μL of CSF was aspirated by inserting a micropipette through the dura mater into the cisterna magna. After the fluid meniscus from the capillary tube was measured, the capillary tube was then flushed with 25.0 μL 50:50 methanol-water solvent to ensure that all the sample was collected.
The concentration of IEM-1460 in perilymph, blood, and CSF was analyzed using LC-MS (Confluence Life Sciences, St. Louis, MO). LC-MS-grade acetonitrile, LC-grade methanol, formic acid, sodium hydroxide 0.1 M, perfluoroheptanoic acid, formic acid, and hydrochloric acid were purchased from Sigma-Aldrich (USA). Deionized water (R > 18 MΩ/cm, TOC <10 ppb) was used throughout all these experiments. IEM-1460 and IEM-1925 were purchased from Tocris Bioscience (Bristol, UK). A 10 mM stock solution was made for both IEM-1460 and IEM-1925 in 50% aqueous methanol. For calibration of the specific compound concentration in the tested matrix (i.e., plasma or CSF/perilymph), a set of standard solutions were prepared by diluting concentrated stock solutions with 50% aqueous methanol into guinea pig plasma matrix or artificial perilymph (in mM: 127.5 NaCl, 3.5 KCl, 25 NaHCO3, 1.3 CaCl2, 1.2 MgCl2, 0.75 NaH2PO4, and 11 glucose) to have a set of standards from 1 to 300 ng/mL. […] Calibration standard samples using verapamil were prepared for each batch of samples ranging from 1 to 300 ng/mL and injected at both the beginning and end of the sample sequence. The methodology for LC-MS for blood has previously been described (Da Silva et al., [2016]; Guiraud et al., [2017]). Separation and analysis were performed on a LC instrument (Exion LC AD, AB SCIEX, USA) coupled to a Sciex QTRAP5500 with TurboV Ion Source (SCIEX, Concord, ON, Canada) equipped with a heated electrospray ionization (H-ESI) source. Chromatographic separation was obtained using a gradient elution on a reversed-phase Kinetex F5 (Phenomenex, Aschaffenburg, Germany) column (2.1 × 50 mm), packed with 1.7 μm diameter particles. […]

`NCCCCCNC1(c2ccccc2)CCCCC1` [IEM-1925]: the half-life was 1.13 h. Besides, for the setting “IP 8 mg/kg”, the “LC/MS detection in perilymph or CSF” value is given as “did not detect significant” and the “levels detected in blood” value is “Very low levels”.
On to `C[N+](C)(C)CCCCCNCC12CC3CC(CC(C3)C1)C2` [IEM-1460], for which the half-life is 1.97 h. Further, the “time to plateau of blood plasma concentration” value (IP 13.5 mg/kg) is at most 30 min. Also, under “IP 13.5 mg/kg, average, N = 3”, the “concentration in blood plasma at plateau” value was ~ 7 μg/mL. Moreover, the concentration in blood (IP 13.5 mg/kg, converted from 7 μg/mL) stood at 23.8 µM. In addition, under “IP 13.5 mg/kg, ~2 h after injection, N = 3, 13.5 mg/kg”, the “perilymph level as % of blood level” value is recorded as 17–45%. Further, under “IP 13.5 mg/kg, ~2 h after injection, from blood level and perilymph/blood ratio, 13.5 mg/kg”, the concentration in perilymph is 4–11 μM and ~ 7 μM. For the same compound, the Kp (CSF relative to blood, 13.5 mg/kg, IP 13.5 mg/kg, ~2 h after injection, N = 3, read-out: CSF level as % of blood level) was 0.08 to 0.23. Further, the Kp (perilymph relative to blood, 13.5 mg/kg, IP 13.5 mg/kg, ~2 h after injection, N = 3, read-out: perilymph level as % of blood level) is about 0.3.
